Laboratory results published in patent publication US20240327406A1, “POTASSIUM CHANNEL MODULATORS” (Autifony Therapeutics Limited, priority 2021, published 2024).

How the values were obtained:
[1] = Determination of blood and brain tissue binding (equilibrium dialysis); assay type: in vitro ADME, Sprague Dawley rat; details: Sprague Dawley, 5 h at 37° C.; for fraction unbound at 5 h, 5 micromolar: 1:2 (w/v) in artificial CSF, rat brain homogenate, read-out: % FU Brain; for fraction unbound at 5 h, 0.5 micromolar: whole blood diluted 1:1 (v/v) with isotonic phosphate buffer, rat whole blood, read-out: % FU Blood
Method: Sprague Dawley rat whole blood, collected on the week of the experiment using K3-EDTA as an anti-coagulant, is diluted with isotonic phosphate buffer 1:1 (v/v). Sprague Dawley rat whole brain, stored frozen at −20° C., is thawed and homogenised in artificial cerebrospinal fluid (CSF) 1:2 (w/v).
An appropriate amount of test compound is dissolved in DMSO to give a 10 millimolar solution. Further dilutions, to obtain a 166.7 micromolar working solution are then prepared using 50% acetonitrile in MilliQ water. This working solution is used to spike the blood to obtain a final concentration of 0.5 micromolar in whole blood. Similarly, the working solution is used to spike brain samples to obtain a final concentration of 5 micromolar in whole brain. From these spiked blood and brain preparations, control samples (n=3), are immediately extracted and used to calculate the initial recovery of the test items.
150 microL of compound-free buffer (isotonic phosphate buffer for blood or artificial CSF buffer for brain) is dispensed in one half-well and 150 microL of spiked matrix (blood or brain) is loaded in the other half-well, with the two halves separated by a semi-permeable membrane. After an equilibration period of 5 h at 37° C., 50 microL of dialysed matrix (blood or brain) is added to 50 microL of corresponding compound-free buffer, and vice-versa for buffer, such that the volume of buffer to matrix (blood or brain) remains the same. Samples are then extracted by protein precipitation with 300 microL of acetonitrile containing rolipram (control for positive ionization mode) or diclofenac (control for negative ionization mode) as internal standards and centrifuged for 10 min at 3000 rpm. Supernatants are collected (100 microL), diluted with 27% AcN in MilliQ water (200 microL) and then injected into an HPLC-MS/MS or UPLC-MS/MS system to determine the concentration of test compound present.
Blood and brain tissue binding are then determined using the following formulas:
where Afu=apparent fraction unbound; Buffer=analyte/internal standard ratio determined in the buffer compartment; Blood=analyte/internal standard ratio determined in the blood compartment; Brain=analyte/internal standard ratio determined in the brain compartment.
where: fucr=Fraction unbound corrected; D=matrix dilution factor (D=2 for blood and D=3 for brain). then: […]

[2] = In vitro metabolic stability, rat liver microsomes; assay type: in vitro ADME; details: CLint expressed as mL/min/g liver
Method: (§1) The objective of this study was to determine metabolic stability of test items in rat and human liver microsomes. Verapamil and dextromethorphan were used as positive controls for microsomal incubation.
(§2) Incubation medium was prepared by combining 11.2 mL of potassium phosphate monobasic and 38.8 mL of potassium phosphate dibasic, diluted to 1 L with water. Cryopreserved microsomes were thawed and kept on ice until use. Microsomes were then diluted in incubation to a protein concentration of 0.56 mg/mL. […]
(§3) NADPH regenerating system solution was prepared by dissolving 1.7 mg of NADP, 7.8 mg of G6P and 6 units of G6P-Dehydrogenase in 1 mL of 2% sodium bicarbonate solution (prepared by dissolving 20 g of NaHCO3 in 1 L of water).
(§4) Test compounds were separately dissolved in DMF to obtain 10 mM stock solutions that were further diluted in water/acetonitrile 50/50 (v/v) to obtain the corresponding 50 μM working solutions. Verapamil and dextromethorphan were dissolved in DMF in order to obtain a 10 mM verapamil solution and 10 mM dextromethorphan solution. These solutions were then diluted in the incubation medium in order to obtain a 50 μM verapamil working solution and a 50 μM dextromethorphan working solution.
(§5) 800 μL-aliquots of NADPH regenerating system were pre-warmed at 37° C. for 5 minutes. 5 μL of 50 µM test compounds, verapamil or dextromethorphan were added to 445 μL of the 0.56 mg/mL microsomes solution and the incubation mixture was pre-warmed in a 96 deep well 2 mL plate (incubation plate) at 37° C. for 5 minutes. The incubation reactions were initiated by adding 50 μL of pre-warmed NADPH regenerating system to the incubation mixtures. 50 μL aliquots were taken from incubation mixtures at: 0, 3, 6, 9, 15, and 30 minutes and the reactions were stopped by adding 100 μL of aceronitrile with the corresponding internal standard. Samples were then diluted with 120 μL of water (final organic solvent percentage at 37%) and centrifuged at 3000 rpm for 10 minutes, prior the LC-MS/MS analysis.
(§6) Metabolic stability was calculated from the peak area ratio of the remaining test compound with internal standard versus time. The intrinsic clearance (CLint) was determined from the first order elimination constant k (min^−1) (obtained from GraphPad by plotting the natural logarithm of the peak area ratio of the remaining test item with internal standard versus time), using the actual volume of the incubation V (mL), the amount of hepatocytes in the incubation M (million cells) and the hepatocellularity number per a liver Hn (120 for human).

[3] = In vitro metabolic stability, human liver microsomes; assay type: in vitro ADME; details: CLint expressed as mL/min/g liver
Method: as §1, §2, §3, §4, §5, §6

[4] = Determination of in vivo pharmacokinetic parameters (blood and brain concentrations); details: male, rat
Method: Adult male rats (Charles River, Italy) are dosed with test compound orally at 1 mg/kg (5 ml/kg, in 5% v/v DMSO, 0.5% w/v HPMC in water) and intravenously at 0.5 mg/kg (2 ml/kg, in 5% v/v DMSO 40% w/v PEG400 in saline). After oral administration, blood samples are collected under deep Isofluorane anesthesia from the portal vein and heart of each rat (1 rat per time point). After intravenous administration, serial blood samples are collected from the lateral tail vein of each rat. Blood and brain samples are collected at a single timepoint of 0.5 h after dose administration for these animals. In all cases, blood samples are collected into potassium EDTA tubes.
A further group of rats (n=1 per test compound) receive a single intravenous administration of the PgP transport inhibitor, Elacridar (3 mg/kg) shortly before the oral administration of the test compound at 1 mg/kg, as above.
Blood and brain samples can be assayed for test compound concentration using a method based on protein precipitation with acetonitrile followed by HPLC/MS-MS analysis with an optimized analytical method.
The concentrations of test compound in blood (expressed as ng/ml) and brain (expressed as ng/g) at the different time points following either oral or intravenous dosing are analysed using a non-compartmental pharmacokinetic model using WinNonLin Professional version 4.1. The following parameters are derived:
Intravenous dosing: Maximum concentration over time (Cmax), integrated concentration over time (AUC), clearance (Clb), volume of distribution (Vss), half-life (t1/2) and Brain/Heart Blood conc @0.5 hr.
Oral dosing: Cmax, time of maximum concentration (Tmax), AUC, bioavailability (F %), fraction absorbed (Fa %), blood to brain ratio (AUC B/B), and Fold-change in AUC B/B in the presence of Elacridar.

Row | SMILES | fraction unbound at 5 h, 5 micromolar [1] | fraction unbound at 5 h, 0.5 micromolar [1] | Cli rat [2] [mL/min/g] | Cli human [3] [mL/min/g] | Kp ([4]; brain and blood, oral dosing 1 mg/kg, read-out: AUC B/B (brain/blood) ratio) | Kp at 0.5 h ([4]; brain and heart blood, intravenous, 0.5 mg/kg, 0.5 h after dose administration, read-out: Brain/Heart Blood conc @0.5 hr)
1 | Cc1ccc(Oc2ccc(-n3c(=O)[nH]c4cccnc43)cn2)cc1OC(F)(F)F [Example 4, 3-[6-[4-methyl-3-(trifluoromethoxy)phenoxy]-3-pyridyl]-1H-imidazo[4,5-b]pyridin-2-one] | 0.003 | 0.002 | 0.9 | 0.7 | – | –
2 | O=c1[nH]c2cccnc2n1-c1cnc(Oc2cccc(OC(F)(F)F)c2)nc1 [Example 17, 3-[2-[3-(trifluoromethoxy)phenoxy]pyrimidin-5-yl]-1H-imidazo[4,5-b]pyridin-2-one] | 0.016 | 0.016 | <0.5 | <0.5 | 0.45 | 0.76
3 | Cc1ccc(Oc2ncc(-n3c(=O)[nH]c4cccnc43)cn2)cc1OC(F)(F)F [Example 32, 3-[2-[4-methyl-3-(trifluoromethoxy)phenoxy]pyrimidin-5-yl]-1H-imidazo[4,5-b]pyridin-2-one] | 0.006 | 0.01 | 0.9 | 0.8 | – | –
